Test results as given in US12509431B2, “1,4-dihydroquinazolinone compounds and uses thereof” (Edgewise Therapeutics, Inc., priority 2022, dated 2025).

How the values were obtained:
Assay type in all cases: biochemical
Conditions in all cases: Table 8
[1] = tested on: Rabbit Skeletal myofibrils (rabbit psoas muscle); experiment: Myofibril ATPase assay (PK/LDH NADH-coupled), skeletal myofibrils
Method in brief: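 Rabbit psoas myofibrils in pCa (PIPES/CaCl2/EGTA, pH 7.0) buffer; ADP coupled via PK/LDH to NADH loss, read at 340 nm every 1.5–2 min for 75 min. Slopes normalized to vehicle (100%) and fit to 4-parameter logistic for EC25, plus EC50 for inhibitors.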

[2] = target: T1, Porcine Ventricle myofibrils (left ventricle of Yucatan minipigs) (Sus scrofa, UniProt P79293); experiment: Myofibril ATPase assay (PK/LDH NADH-coupled), ventricle myofibrils
T1 construct: Myofibrils from porcine cardiac muscle was isolated from the left ventricle of Yucatan minipigs; tissue Exemplar Genetics; host or cells: left ventricle of Yucatan minipigs
T1 sequence (P79293 whole entry): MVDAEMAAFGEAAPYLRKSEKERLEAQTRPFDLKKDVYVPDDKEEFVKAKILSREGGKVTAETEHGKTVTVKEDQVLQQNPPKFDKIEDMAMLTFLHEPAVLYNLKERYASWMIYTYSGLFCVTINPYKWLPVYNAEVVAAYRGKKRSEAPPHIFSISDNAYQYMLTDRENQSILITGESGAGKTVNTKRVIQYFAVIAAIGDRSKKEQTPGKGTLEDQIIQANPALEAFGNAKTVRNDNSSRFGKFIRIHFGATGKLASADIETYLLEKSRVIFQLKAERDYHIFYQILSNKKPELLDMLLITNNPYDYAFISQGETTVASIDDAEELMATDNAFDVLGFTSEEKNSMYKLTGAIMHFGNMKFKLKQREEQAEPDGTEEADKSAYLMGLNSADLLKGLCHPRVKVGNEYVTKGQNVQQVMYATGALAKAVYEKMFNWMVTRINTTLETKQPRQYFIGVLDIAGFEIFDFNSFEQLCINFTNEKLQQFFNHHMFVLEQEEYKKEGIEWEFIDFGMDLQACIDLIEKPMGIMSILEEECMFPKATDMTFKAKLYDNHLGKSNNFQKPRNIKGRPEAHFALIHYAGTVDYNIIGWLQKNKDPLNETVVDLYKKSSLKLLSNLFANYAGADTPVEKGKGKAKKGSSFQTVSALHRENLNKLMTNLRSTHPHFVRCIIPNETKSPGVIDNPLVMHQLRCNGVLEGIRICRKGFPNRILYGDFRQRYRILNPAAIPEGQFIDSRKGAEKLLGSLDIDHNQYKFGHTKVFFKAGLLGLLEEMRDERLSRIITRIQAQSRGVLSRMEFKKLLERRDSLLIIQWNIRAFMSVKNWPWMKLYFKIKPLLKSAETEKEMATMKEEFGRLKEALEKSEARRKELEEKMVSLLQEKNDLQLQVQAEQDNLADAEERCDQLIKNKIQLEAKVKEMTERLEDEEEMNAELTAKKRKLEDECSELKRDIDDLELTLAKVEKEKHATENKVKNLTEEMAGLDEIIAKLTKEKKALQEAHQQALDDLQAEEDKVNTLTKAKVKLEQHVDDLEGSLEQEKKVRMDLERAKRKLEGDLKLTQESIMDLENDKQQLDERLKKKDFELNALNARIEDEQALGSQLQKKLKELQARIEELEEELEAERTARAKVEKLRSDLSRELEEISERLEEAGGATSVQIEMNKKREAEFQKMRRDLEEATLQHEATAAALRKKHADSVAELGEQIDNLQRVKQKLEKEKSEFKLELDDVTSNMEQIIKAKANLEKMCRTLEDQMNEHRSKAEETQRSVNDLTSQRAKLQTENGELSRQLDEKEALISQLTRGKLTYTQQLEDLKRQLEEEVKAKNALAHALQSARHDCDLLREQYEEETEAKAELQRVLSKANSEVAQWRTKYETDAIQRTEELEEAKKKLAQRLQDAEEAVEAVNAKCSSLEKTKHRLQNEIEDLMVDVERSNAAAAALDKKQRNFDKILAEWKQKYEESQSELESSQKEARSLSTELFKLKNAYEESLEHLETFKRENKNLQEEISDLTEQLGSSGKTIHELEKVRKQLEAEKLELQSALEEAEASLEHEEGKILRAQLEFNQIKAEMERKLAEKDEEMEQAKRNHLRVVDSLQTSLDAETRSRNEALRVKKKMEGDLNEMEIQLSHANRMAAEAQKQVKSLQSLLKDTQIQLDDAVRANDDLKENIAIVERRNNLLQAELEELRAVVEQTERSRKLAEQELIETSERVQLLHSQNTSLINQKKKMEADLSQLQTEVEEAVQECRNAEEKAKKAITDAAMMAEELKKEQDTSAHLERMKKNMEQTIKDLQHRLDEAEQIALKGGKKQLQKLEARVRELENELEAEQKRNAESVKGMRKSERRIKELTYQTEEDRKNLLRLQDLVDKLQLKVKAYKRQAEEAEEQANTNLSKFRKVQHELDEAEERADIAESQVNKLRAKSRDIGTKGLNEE
Method in brief: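 Yucatan minipig left-ventricle myofibrils; ATPase measured by PK/LDH-coupled NADH loss at 340 nm, read every 1.5-2 min for 75 min. Slopes normalized to vehicle (100%) and fit to 4-parameter logistic model; EC25 and, for inhibitors, EC50 calculated.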

[3] = tested on: Porcine Atria myofibrils; experiment: Myofibril ATPase assay (PK/LDH NADH-coupled), atria myofibrils
Method in brief: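 Porcine atrial myofibril ATPase followed via PK/LDH-coupled NADH depletion, absorbance at 340 nm read every 1.5-2 min over 75 min. Slopes (mAU/min) normalized to vehicle as 100% and fit to a 4-parameter logistic; EC25% derived, plus EC50% for inhibitors.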

## C[C@H](NC(=O)[C@@H](Cc1ccccc1)N1Cc2cc(F)ccc2NC1=O)c1ccc(F)cc1F [Compound B220]
[1]
  Rabbit Psoas IC25: 47560 nM
[2]
  Porcine Ventricle IC25: 100000 nM
[3]
  Porcine Atria IC25: 53570 nM

## C[C@H](NC(=O)CN1C(=O)Nc2ccc(F)cc2C12CC2)c1ccc(F)cc1F [Compound B221]
[1]
  Rabbit Psoas IC25: 17.4 nM
[2]
  Porcine Ventricle IC25: 108.6 nM
[3]
  Porcine Atria IC25: 30 nM

## C[C@H](NC(=O)[C@H](C)N1Cc2c(F)cccc2NC1=O)c1ccc(F)cc1F [Compound B222]
[1]
  Rabbit Psoas IC25: 41 nM
[2]
  Porcine Ventricle IC25: 436.5 nM
[3]
  Porcine Atria IC25: 50 nM

## C[C@H](NC(=O)[C@@H](C)N1Cc2c(F)cccc2NC1=O)c1ccc(F)cc1F [Compound B223]
[1]
  Rabbit Psoas IC25: 1426 nM
[2]
  Porcine Ventricle IC25: 3783 nM
[3]
  Porcine Atria IC25: 440 nM

## Cc1cc(F)ccc1[C@@H](C)NC(=O)CN1Cc2cc(F)ccc2NC1=O [Compound B224]
[1]
  Rabbit Psoas IC25: 3991 nM
[2]
  Porcine Ventricle IC25: 100000 nM
[3]
  Porcine Atria IC25: 28570 nM

## Cc1cc(F)ccc1[C@H](C)NC(=O)CN1Cc2cc(F)ccc2NC1=O [Compound B225]
[1]
  Rabbit Psoas IC25: 17.5 nM
[2]
  Porcine Ventricle IC25: 184.9 nM
[3]
  Porcine Atria IC25: 50 nM

## C[C@H](NC(=O)CN1Cc2c(Br)cccc2NC1=O)c1ccc(F)cc1F [Compound B226]
[1]
  Rabbit Psoas IC25: 24.4 nM
[2]
  Porcine Ventricle IC25: 227.4 nM
[3]
  Porcine Atria IC25: 140 nM

## C[C@H](NC(=O)[C@H](C)N1Cc2c(Br)cccc2NC1=O)c1ccc(F)cc1F [Compound B227]
[1]
  Rabbit Psoas IC25: 12.7 nM
[2]
  Porcine Ventricle IC25: 248.5 nM
[3]
  Porcine Atria IC25: 60 nM

## C[C@H](NC(=O)[C@@H](C)N1Cc2c(Br)cccc2NC1=O)c1ccc(F)cc1F [Compound B228]
[1]
  Rabbit Psoas IC25: 284.4 nM
[2]
  Porcine Ventricle IC25: 2111 nM
[3]
  Porcine Atria IC25: 320 nM

## C[C@H](NC(=O)CN1C(=O)Nc2ccccc2C12CC2)c1ccc(F)cc1F [Compound B229, N-[(1S)-1-(2,4-Difluorophenyl)ethyl]-2-{2′-oxo-1′H-spiro[cyclopropane-1,4′-quinazolin]-3′-yl}acetamide]
[1]
  Rabbit Psoas IC25: 35.6 nM
[2]
  Porcine Ventricle IC25: 156 nM
[3]
  Porcine Atria IC25: 60 nM

## C[C@H](NC(=O)CN1Cc2cc(F)ccc2NC1=O)c1ncc(F)cc1F [Compound B230]
[1]
  Rabbit Psoas IC25: 182 nM
[2]
  Porcine Ventricle IC25: 1835 nM
[3]
  Porcine Atria IC25: 220 nM

## C[C@H](NC(=O)CN1C(=O)Nc2ccc(F)cc2[C@H]1C(F)(F)F)c1ccc(F)cc1F [Compound B235]
[1]
  Rabbit Psoas IC25: 100000 nM
[2]
  Porcine Ventricle IC25: 100000 nM
[3]
  Porcine Atria IC25: 1150 nM

## C[C@H](NC(=O)[C@@H](C)N1Cc2c(ccc(F)c2F)NC1=O)c1ccc(F)cc1F [Compound B236]
[1]
  Rabbit Psoas IC25: 33.3 nM
[2]
  Porcine Ventricle IC25: 231.6 nM
[3]
  Porcine Atria IC25: 30 nM

## C[C@H](NC(=O)[C@H](C)N1Cc2c(ccc(F)c2F)NC1=O)c1ccc(F)cc1F [Compound B237]
[1]
  Rabbit Psoas IC25: 316.4 nM
[2]
  Porcine Ventricle IC25: 8122 nM
[3]
  Porcine Atria IC25: 280 nM

## C[C@H](NC(=O)CN1Cc2c(ccc(F)c2F)NC1=O)c1ccc(F)cc1F [Compound B238]
[1]
  Rabbit Psoas IC25: 11.6 nM
[2]
  Porcine Ventricle IC25: 143.5 nM
[3]
  Porcine Atria IC25: 30 nM

## C[C@@H](NC(=O)[C@H](C)N1Cc2cc(F)ccc2NC1=O)c1ccc(F)cc1F [Compound B239]
[1]
  Rabbit Psoas IC25: 7191 nM
[2]
  Porcine Ventricle IC25: 100000 nM
[3]
  Porcine Atria IC25: 100000 nM

## C[C@H](C(=O)N[C@H](C)c1ccc(F)cc1F)N1Cc2cc(F)ccc2NC1=O [Compound B240]
[1]
  Rabbit Psoas IC25: 882.5 nM
[2]
  Porcine Ventricle IC25: 100000 nM
[3]
  Porcine Atria IC25: 25370 nM

## C[C@H](NC(=O)[C@@H](C)N1Cc2cc(F)ccc2NC1=O)c1ccc(F)cc1F [Compound B241]
[1]
  Rabbit Psoas IC25: 34 nM
[2]
  Porcine Ventricle IC25: 1243 nM
[3]
  Porcine Atria IC25: 110 nM

## C[C@H](NC(=O)[C@H](C)N1Cc2cc(F)ccc2NC1=O)c1ccc(F)cc1F [Compound B242]
[1]
  Rabbit Psoas IC25: 355.5 nM
[2]
  Porcine Ventricle IC25: 100000 nM
[3]
  Porcine Atria IC25: 58710 nM

## CC(C(=O)N[C@@H](C)c1ccc(F)cc1F)N1Cc2ccccc2NC1=O (stereo partly drawn) [Compound B243]
[1]
  Rabbit Psoas IC25: 10960 nM
[2]
  Porcine Ventricle IC25: 11520 nM
[3]
  Porcine Atria IC25: 190 nM

## CC1c2ccccc2NC(=O)N1CC(=O)N[C@@H](C)c1ccc(F)cc1F (stereo partly drawn) [Compound B244, N-[(1S)-1-(2,4-Difluorophenyl)ethyl]-2-(4-methyl-2-oxo-1,4-dihydroquinazolin-3-yl)acetamide]
[1]
  Rabbit Psoas IC25: 695 nM
[2]
  Porcine Ventricle IC25: 4818 nM
[3]
  Porcine Atria IC25: 2500 nM

## C[C@H](NC(=O)CN1C(=O)Nc2ccccc2C1(C)C)c1ccc(F)cc1F [Compound B245]
[1]
  Rabbit Psoas IC25: 9295 nM
[2]
  Porcine Ventricle IC25: 11660 nM
[3]
  Porcine Atria IC25: 940 nM

## C[C@H](NC(=O)CN1C(=O)Nc2ccccc2C12CCCCC2)c1ccc(F)cc1F [Compound B246]
[1]
  Rabbit Psoas IC25: 19620 nM
[2]
  Porcine Ventricle IC25: 73700 nM
[3]
  Porcine Atria IC25: 100000 nM

## C[C@H](NC(=O)CN1Cc2c(F)cccc2NC1=O)c1ccc(F)cc1F [Compound B248, N-[(1S)-1-(2,4-Difluorophenyl)ethyl]-2-(5-fluoro-2-oxo-1,4-dihydroquinazolin-3-yl)acetamide]
[1]
  Rabbit Psoas IC25: 62 nM
[2]
  Porcine Ventricle IC25: 283.2 nM
[3]
  Porcine Atria IC25: 50 nM

## C[C@H](NC(=O)CN1Cc2ccccc2NC1=O)c1ccc(F)cc1F [Compound B249, N-[(1S)-1-(2,4-difluorophenyl)ethyl]-2-(2-oxo-1,4-dihydroquinazolin-3-yl)acetamide]
[1]
  Rabbit Psoas IC25: 27.66 nM
[2]
  Porcine Ventricle IC25: 658.9 nM
[3]
  Porcine Atria IC25: 70 nM

## C[C@@H](NC(=O)CN1Cc2c(ccc(F)c2F)NC1=O)c1ncc(C(N)=O)cc1O [Compound B250]
[1]
  Rabbit Psoas IC25: 36830 nM
[2]
  Porcine Ventricle IC25: 60470 nM
[3]
  Porcine Atria IC25: 81490 nM

## C[C@@H](NC(=O)CN1Cc2cc(CN(C)C)ccc2NC1=O)c1ncc(C#N)cc1F [Compound B251]
[1]
  Rabbit Psoas IC25: 100000 nM
[2]
  Porcine Ventricle IC25: 100000 nM
[3]
  Porcine Atria IC25: 8810 nM

## C[C@H](NC(=O)CN1Cc2cc(CN(C)C)ccc2NC1=O)c1ncc(C#N)cc1F [Compound B252]
[1]
  Rabbit Psoas IC25: 36830 nM
[2]
  Porcine Ventricle IC25: 60470 nM
[3]
  Porcine Atria IC25: 81490 nM

## CNC(=O)N1CC2(C1)c1cc(F)ccc1NC(=O)N2CC(=O)N[C@H](C)c1ncc(C#N)cc1F [Compound B253]
[1]
  Rabbit Psoas IC25: 86410 nM
[2]
  Porcine Ventricle IC25: 100000 nM
[3]
  Porcine Atria IC25: 100000 nM

## CNC(=O)N1CC2(C1)c1cc(F)ccc1NC(=O)N2CC(=O)N[C@@H](C)c1ncc(C#N)cc1F [Compound B254]
[1]
  Rabbit Psoas IC25: 100000 nM
[2]
  Porcine Ventricle IC25: 100000 nM
[3]
  Porcine Atria IC25: 100000 nM

## CC(=O)N1CC2(C1)c1cc(F)ccc1NC(=O)N2CC(=O)N[C@H](C)c1ncc(C#N)cc1F [Compound B255]
[1]
  Rabbit Psoas IC25: 100000 nM
[2]
  Porcine Ventricle IC25: 100000 nM
[3]
  Porcine Atria IC25: 100000 nM

## CC(=O)N1CC2(C1)c1cc(F)ccc1NC(=O)N2CC(=O)N[C@@H](C)c1ncc(C#N)cc1F [Compound B256]
[1]
  Rabbit Psoas IC25: 39410 nM
[2]
  Porcine Ventricle IC25: 46270 nM
[3]
  Porcine Atria IC25: 75740 nM

## C[C@@H](NC(=O)CN1Cc2c(ccc(F)c2F)NC1=O)c1ncc(-n2ncnn2)cc1F [Compound B264]
[1]
  Rabbit Psoas IC25: 100000 nM
[2]
  Porcine Ventricle IC25: 890 nM
[3]
  Porcine Atria IC25: 520 nM

## C[C@H](NC(=O)CN1Cc2c(ccc(F)c2F)NC1=O)c1ncc(-n2ncnn2)cc1F [Compound B265]
[1]
  Rabbit Psoas IC25: 100000 nM
[2]
  Porcine Ventricle IC25: 5360 nM
[3]
  Porcine Atria IC25: 1880 nM
